Reference: patent US11866405B2, “Substituted indazoles as IRAK4 inhibitors” (AstraZeneca AB, priority 2020, dated 2024)

How the values were obtained:
[1] = target: IRAK4 auto-phosphorylation (Homo sapiens (Human), UniProt Q9NWZ3); experiment: IRAK4 phosphorylation cell assay in IL-1β-stimulated Karpas-299 cells; format: cell-based; settings: IL-1β 22.7 ng/mL, pIRAK4 (Thr345/Ser346), geometric mean of at least 2 experiments
In short: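 Karpas-299 cells were preincubated 1 h at 37 °C with compound (10-point half-log series, top 30 μM), then stimulated 10 min with 22.7 ng/mL IL-1β. Cells were fixed and stained for pIRAK4 (Thr345/Ser346), and per-cell fluorescence was quantified by high-content imaging. IC50 values are geometric means of at least 2 experiments.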

[2] = tested on: IL-1β stimulated IL-8 release in hTHP1 cells; experiment: IL-1β-induced IL-8 release in human THP-1 monocyte cell line; format: cell-based; settings: Homo sapiens, THP-1, 18 h, THP-1 cells, IL-1β 1.8 ng/mL, geometric mean of at least n=2, * n = 1, read-out: hTHP1, IL1β stim, IL8 release red. IC50
Description: Effect of IRAK4 Inhibitors on IL-1β-Induced Cytokine Release in Human THP-1 Monocyte Cell Line
THP-1 cells were cultured in RPMI 1640 (Gibco 72400-021) containing 10% FBS (Gibco 10270-106), 1 mM Na-pyruvate (Gibco 11360-070) and 100 U/mL Penicillin-Streptomycin (Gibco 15140-122). Cells were plated at 5×10^4 cells per well in 384 well Echo certified plates (Labcyte PPT-0200) to which compounds had been added at various concentrations (10 point half log dose response with a final top concentration of 10 μM) using an Echo 655 (Labcyte Inc). The plate was incubated for 1 h at 37° C., then recombinant […] (R&D Systems 201-LB-025/CF) was added to a final concentration of 1.8 ng/mL. The plates were incubated at 37° C. for 18h. The plates were centrifuged at 250×g for four minutes, then 1.6 μL of the cell supernatant was transferred to a white low volume 384 well plate (Greiner #784075) using acoustic dispensing on an Echo 655. Next, 200 nL of acceptor bead (5 mg/mL) and biotinylated anti-IL-8 antibody (500 nM) was added using acoustic dispensing (beads and antibody were from a PerkinElmer 18 Alpha LISA detection kit, AL224C). The plate was sealed, briefly centrifuged, then incubated at room temperature for 1 h. Afterwards, 200 nL of donor bead solution (5 mg/mL) was added, the plate sealed and briefly centrifuged, then incubated for 1 h before being read on an Envision plate reader to allow determination the concentration of IRAK4 inhibitor required to effect a 50% reduction in the amount of IL-8 released following IL-1β stimulation in THP1 cells (Table 2). The quantified data were analysed in Genedata Screener 15 (Genedata AG). Data presented are the geometric mean of at least n=2, or as denoted by an * are obtained from a single experiment.

[3] = target: human recombinant IRAK4 protein (Homo sapiens (Human), UniProt Q9NWZ3); experiment: IRAK4 enzyme assay (mass spectrometry readout); format: biochemical; settings: 3 mM ATP, 0.2 nM enzyme; geometric mean of at least n=2, * single experiment
In short: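 0.2 nM IRAK4 preincubated 15 min at room temperature with compound (10-point half-log series, top 1 μM or 10 μM) in pH 7.4 Tris buffer with 3 mM ATP; 10 μM peptide substrate added, 2 h at room temperature, formic acid stop. Phospho/unphospho peptide ratio by LC-MS/MS; potency from curve fit, geometric mean of n≥2 or single run.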

human recombinant IRAK4 protein, sequence (Q9NWZ3 whole entry): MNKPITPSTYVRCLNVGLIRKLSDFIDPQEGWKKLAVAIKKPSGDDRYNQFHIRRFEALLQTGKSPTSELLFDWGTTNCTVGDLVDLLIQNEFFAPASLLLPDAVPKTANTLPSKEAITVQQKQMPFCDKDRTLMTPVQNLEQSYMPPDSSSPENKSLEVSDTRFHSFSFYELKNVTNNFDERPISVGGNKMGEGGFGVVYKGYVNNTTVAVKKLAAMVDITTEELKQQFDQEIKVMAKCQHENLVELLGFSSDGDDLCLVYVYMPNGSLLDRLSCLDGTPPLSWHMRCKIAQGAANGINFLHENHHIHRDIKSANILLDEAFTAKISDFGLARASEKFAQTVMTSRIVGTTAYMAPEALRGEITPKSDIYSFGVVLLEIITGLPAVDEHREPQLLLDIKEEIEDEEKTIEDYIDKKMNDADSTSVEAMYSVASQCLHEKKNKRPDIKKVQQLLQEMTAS
IRAK4 auto-phosphorylation, sequence (Q9NWZ3 whole entry): as above

| IC50 [1] | IC50 [2] | IC50 [3] | SMILES |
| --- | --- | --- | --- |
| 53 nM | 84 nM | 1.6 nM | COc1cc2nn([C@H]3CC[C@@]4(CC3)CC(=O)N(C)C4)cc2cc1C(=O)Nc1cnc2cccnn12 [Example 68, N-(Imidazo[1,2-b]pyridazin-3-yl)-6-methoxy-2-((5s,8s)-2-methyl-3-oxo-2-azaspiro[4.5]decan-8-yl)-2H-indazole-5-carboxamide] |
| 22 nM | 15 nM | 0.5 nM | COc1cc2nn([C@H]3CC[C@]4(CC3)CC(=O)N(C)C4)cc2cc1C(=O)Nc1cnc2cccnn12 [Example 69, N-(Imidazo[1,2-b]pyridazin-3-yl)-6-methoxy-2-((5r,8r)-2-methyl-3-oxo-2-azaspiro[4.5]decan-8-yl)-2H-indazole-5-carboxamide] |
| 36 nM | 31 nM | 1.9 nM | COc1cc2nn([C@H]3CC[C@]4(CC3)CC(=O)N(C)C4)cc2cc1C(=O)Nc1cnn2cccnc12 [Example 86, 6-methoxy-2-((5r,8r)-2-methyl-3-oxo-2-azaspiro[4.5]decan-8-yl)-N-(pyrazolo[1,5-a]pyrimidin-3-yl)-2H-indazole-5-carboxamide] |
| 88 nM | 49 nM | 2.3 nM | COc1cc2nn([C@H]3CC[C@H](O)C[C@@H]3C)cc2cc1C(=O)Nc1cnc2cccnn12 [Example 91, 2-((1S,2S,4S)-4-hydroxy-2-methylcyclohexyl)-N-(imidazo[1,2-b]pyridazin-3-yl)-6-methoxy-2H-indazole-5-carboxamide] |
| 30 nM | 28 nM | 1.6 nM | COc1cc2nn([C@@H]3CC[C@](C)(O)C[C@H]3C)cc2cc1C(=O)Nc1cnc2cccnn12 [Example 92, 2-((1R,2R,4S)-4-hydroxy-2,4-dimethylcyclohexyl)-N-(imidazo[1,2-b]pyridazin-3-yl)-6-methoxy-2H-indazole-5-carboxamide] |
| 8 nM | 30 nM | 0.4 nM | COc1cc2nn([C@@H]3CC[C@@](C)(O)C[C@H]3C)cc2cc1C(=O)Nc1cnc2cccnn12 [Example 93, 2-((1R,2R,4R)-4-hydroxy-2,4-dimethylcyclohexyl)-N-(imidazo[1,2-b]pyridazin-3-yl)-6-methoxy-2H-indazole-5-carboxamide] |
